Measured values reported in patent publication US20050163707A1, “Cancer treatment” (priority 2002, published 2005).

Tests used:
[1] = system: HT1376 bladder tumour xenografts; test: Tumour volume tripling time of HT1376 xenografts in nude mice after 90Y-hHMFG1 radioimmunotherapy and/or chemotherapy; assay type: in vivo, mouse (human tumour xenograft); details: for T-C value: Cisplatin combined with 1.2 MBq radioimmunotherapy
Protocol: (§1) The human bladder tumour cell line, HT1376, and the human colon tumour cell line HT29 expressing polymorphic epithelial mucin (PEM) were cultured in RPMI 1640 tissue culture medium containing 100 U·ml^−1 penicillin and 100 μg·ml^−1 streptomycin, supplemented with 10% foetal calf serum in a humidified atmosphere of 5% carbon dioxide in air. HT1376 is a human bladder carcinoma cell line obtained from the European Collection of Animal Cell Cultures (ECACC no. 87032402). HT29 is human colon carcinoma cell line obtained from European Collection of Animal Cell Cultures (ECACC no. 91072201).
(§2) The fully humanised version of the anti-PEM antibody, HMFG1, was produced by Lonza, Slough, UK. This humanised HMFG1 (hHMFG1) was conjugated with the chelating agent […] by BioInvent, Sweden.
(§3) CITC-DTPA-conjugated hHMFG1 was radiolabelled with ^90Y in acetate buffer (pH 5.5) at room temperature for 30 minutes. Disodium EDTA was added to the reaction mixture such that the final EDTA concentration was 5 mM and left to stand at room temperature for approximately 10 min. The radiolabelled protein was then purified by size exclusion chromatography and the protein-containing fractions pooled.
(§4) Female MF1 athymic nude (nu/nu) mice were used throughout these studies. The mice were bred at the Biological Research Facility of St. George's Hospital Medical School and were housed in sterile filter cages and maintained on irradiated diet and sterile water. Tumours were established by subcutaneous injection of 5×10^6 cells in the right flank.
(§5) Humanised HMFG1 anti-PEM antibody (previously conjugated with the chelating agent CITC-DTPA) was radiolabelled with yttrium-90 (^90Y) to a specific activity of approximately 1-2 MBq per 10 μg. Mice received approximately 10 μg of protein by intravenous injection.
(§6) For combination therapy, the drug and radioimmunotherapy (RIT) were given by sequential injections into the two lateral tail veins. The drug was given either 24 h before or 24 h after the RIT. In the case of Cisplatin, this was also given at the same time as the RIT. Control mice were untreated.
(§7) Approximately three weeks after tumour inoculation, when the tumours were around 0.2 cm^3 in volume (7-8 mm in diameter), mice were divided into treatment groups of 7-8 mice each. […] Mice were injected with various doses of ^90Y-labelled hHMFG1 radioimmunotherapy (10-20 μg, 1.2-2.0 MBq) either alone or in combination with the test drug given either 24 h before or 24 h after radioimmunotherapy, or with chemotherapy or chemotherapy vehicle alone. One group of mice was left untreated as a control on some occasions when experimental animals were treated. Tumour diameters (d1, d2 and d3) were measured twice weekly in three orthogonal directions using a vernier calliper and the tumour volume (v) calculated according to the formula for an ellipsoid: [formula]
(§8) Relative tumour volume (the volume of each tumour divided by the tumour volume on the day of treatment) was calculated to minimise the effect of variation in treatment volume of the individual tumours. The end-point was defined as time for the relative tumour volume to reach 3.
(§9) The Wilcoxon rank sum test was used to compare the groups of mice receiving the various treatment protocols. A p-value <0.05 was considered to be significant.

[2] = system: mouse model of breast cancer; details: cited from earlier work
[3] = system: HT29 colon tumour xenografts; test: Tumour volume tripling time of HT29 xenografts in nude mice after 90Y-hHMFG1 radioimmunotherapy and/or chemotherapy; assay type: in vivo, mouse (human tumour xenograft); details: for Median volume tripling time / T-C (treated minus control tripling time): 90Y-hHMFG1 1.4 MBq, combinations 24 h apart; for Most effective treatment schedule / Effect of drug combined with radioimmunotherapy (in words): Table 2; for Most effective treatment schedule: drug combined with 90Y-hHMFG1 radioimmunotherapy
Protocol: as §1, §2, §3, §4, §5, §6, §7, §8, §9

[4] = Table 2, HT1376 Cisplatin, Observer 1, control 21.9, 90Y-hHMFG1 1.2 MBq, Cisplatin 10 mg/kg, drug at -24 h, 0 h or +24 h relative to RIT
[5] = Table 2, HT1376 Cisplatin, Observer 1, control 21.9, 90Y-hHMFG1 1.4 MBq, Cisplatin 2 mg/kg, combination at 0 h
[6] = Table 2, HT1376 Cisplatin, Observer 1, control 21.9, 90Y-hHMFG1 1.4 MBq, Cisplatin 10 mg/kg, combination drug -24 h
[7] = Table 1, group with Control (25-26) 19.0, each drug 10 mg/kg i.v. alone
[8] = Table 1, group with Control (18-19) 17.9, Taxotere 10 mg/kg i.v., 90Y-hHMFG1 1.2 MBq i.v., combination of both
[9] = Table 2, HT1376 Taxotere, Observer 1, control 21.9, 90Y-hHMFG1 1.2 MBq, Taxotere 10 mg/kg, combinations 24 h apart
[10] = Table 2, HT29 cyclophosphamide, Observer 1, control 10.2, cyclo 200 mg/kg
[11] = Table 2, HT29 cyclophosphamide, Observer 2, control 10.7, cyclo 200 mg/kg
[12] = drug given after the 90Y-hHMFG1 radioimmunotherapy
[13] = Table 2, HT29 gemcitabine, Observer 1, control 8.8, gemcitabine 240 mg/kg
[14] = Table 2, HT29 gemcitabine, Observer 2, control 9.5, gemcitabine 240 mg/kg
[15] = Table 2, HT29 vincristine, Observer 1, control 10.2, vincristine 2 mg/kg

Question: Which “Median volume tripling time” value [1, 4] does the source give for `N.N.[Cl][Pt][Cl]` [Cisplatin] here?
Answer: Its value is 28.8 days.

Question: What about the “T-C (treated minus control tripling time)” value [1, 4] of the same compound?
Answer: The value was 6.9 days.

Question: What about the “Median volume tripling time” value [1, 5] of the same compound?
Answer: The value was 28.9 days.

Question: What about the “T-C (treated minus control tripling time)” value [1, 5] of the same compound?
Answer: Its value is 7.0 days.

Question: And the “Median volume tripling time” value [1, 6]?
Answer: The value was 28.8 days.

Question: What about the “T-C (treated minus control tripling time)” value [1, 6] of the same compound?
Answer: The value was 6.9 days.

Question: What about the “T-C, combined addition of the drugs administered individually” value ([1]; Table 2, 1.2 MBq 90Y-hHMFG1 alone plus Cisplatin 10 mg/kg alone) of the same compound?
Answer: The value was 7.9.

Question: What about the T-C value ([1]; Table 2, first dosage regime (drug -24 h per Table 2)) of the same compound?
Answer: The T-C value was 44.

Question: And the T-C value ([1]; Table 2, second dosage regime (0 h per Table 2))?
Answer: Its T-C value is 36.5.

Question: What about the T-C value ([1]; Table 2, third dosage regime (drug +24 h per Table 2)) of the same compound?
Answer: Its T-C value is 15.5.

Question: And the “Most effective treatment schedule” value ([1]; Table 2, drug combined with 90Y-hHMFG1 radioimmunotherapy)?
Answer: The value was “administer the drug 24 hours before the radioimuunotherapy”.

Question: And the “Effect of drug combined with radioimmunotherapy (in words)” value (“Effect of drug combined” for short) ([1]; Table 2, with 90Y-hHMFG1, no matter the order of administering)?
Answer: Its value is “synergistic effect”.

Question: For `COc1cccc2c1C(=O)c1c(O)c3c(c(O)c1C2=O)C[C@@](O)(C(=O)CO)C[C@@H]3O[C@H]1C[C@H](N)[C@H](O)[C@H](C)O1` [Dox], which “T-C (treated minus control tripling time)” value [1, 7] is on record?
Answer: Its value is 33.9 days.

Question: What about the “Median volume tripling time” value ([1]; in vivo) of the same compound?
Answer: The value was 52.9 days.

Question: Which “Optimum time for Taxol administration after 90Y-ChL6” value [2] does the source give for `CC(=O)O[C@H]1C(=O)[C@@]2(C)[C@H]([C@H](OC(=O)c3ccccc3)[C@]3(O)C[C@H](OC(=O)[C@H](O)[C@@H](NC(=O)c4ccccc4)c4ccccc4)C(C)=C1C3(C)C)[C@]1(OC(C)=O)CO[C@@H]1C[C@@H]2O` [Taxol ®, paclitaxel] here?
Answer: The value was 6 to 24 h.

Question: What about the “Median volume tripling time” value [1, 7] of the same compound?
Answer: The value was 30.2 days.

Question: And the “T-C (treated minus control tripling time)” value [1, 7]?
Answer: Its value is 11.2 days.

Question: What does the source list for `CC(=O)O[C@@]12CO[C@@H]1C[C@H](O)[C@@]1(C)C(=O)[C@H](O)C3=C(C)[C@@H](OC(=O)[C@H](O)[C@@H](NC(=O)OC(C)(C)C)c4ccccc4)C[C@@](O)([C@@H](OC(=O)c4ccccc4)[C@H]21)C3(C)C` [Taxotere ®, Docetaxel]?
Answer: Median volume tripling time [1, 8]: 43.8 days; T-C (treated minus control tripling time) [1, 8]: 25.9 days; Median volume tripling time [1, 7]: 41.2 days; T-C (treated minus control tripling time) [1, 7]: 22.2 days; Median volume tripling time [1, 9]: 43.5 days; T-C (treated minus control tripling time) [1, 9]: 21.6 days

Question: With `O=P1(N(CCCl)CCCl)NCCCO1` (stereo not shown) [cyclo, Cyclophosphamide] as the compound, how does the “Median volume tripling time” value [3, 10] read?
Answer: Its value is 15.5 days.

Question: And the “T-C (treated minus control tripling time)” value [3, 10]?
Answer: The value was 5.3 days.

Question: What about the “Median volume tripling time” value [3, 11] of the same compound?
Answer: The value was 14.1 days.

Question: What about the “T-C (treated minus control tripling time)” value [3, 11] of the same compound?
Answer: Its value is 3.4 days.

Question: What about the “Most effective treatment schedule” value [3] of the same compound?
Answer: Its value is “most effective when given after the radioimmunotherapy”.

Question: What about the “Effect of drug combined” value [3, 12] of the same compound?
Answer: The value was “synergistic effect over the mere additive effect”.

Question: With `Nc1ccn([C@@H]2O[C@H](CO)[C@@H](O)C2(F)F)c(=O)n1` [gemcitabine, Gemcitabine] as the compound, how does the “Median volume tripling time” value [3, 13] read?
Answer: Its value is 15.4 days.

Question: What about the “T-C (treated minus control tripling time)” value [3, 13] of the same compound?
Answer: Its value is 6.6 days.

Question: And the “Median volume tripling time” value [3, 14]?
Answer: The value was 12.8 days.

Question: What about the “T-C (treated minus control tripling time)” value [3, 14] of the same compound?
Answer: Its value is 3.3 days.

Question: What about the “Effect of drug combined” value ([3]; drug and 90Y-hHMFG1 radioimmunotherapy given in combination) of the same compound?
Answer: Its value is “overall increase in T-C values”.

Question: Which “Median volume tripling time” value [3, 15] does the source give for `CC[C@]1(O)C[C@H]2CN(CCc3c([nH]c4ccccc34)[C@@](C(=O)OC)(c3cc4c(cc3OC)N(C=O)[C@H]3[C@@](O)(C(=O)OC)[C@H](OC(C)=O)[C@]5(CC)C=CCN6CC[C@]43[C@@H]65)C2)C1` [vincristine, Vincristine] here?
Answer: The value was 13.4 days.

Question: What about the “T-C (treated minus control tripling time)” value [3, 15] of the same compound?
Answer: The value was 3.2 days.

Question: What about the “T-C (treated minus control tripling time)” value ([3]; Table 2, HT29 vincristine, Observer 2, control 10.7, vincristine 2 mg/kg) of the same compound?
Answer: Its value is 4.0 days.

Question: What about the “Effect of drug combined” value ([3]; drug administered before the 90Y-hHMFG1 radioimmunotherapy) of the same compound?
Answer: Its value is “also effective when administered before the radioimmunotherapy although to a slightly lesser extent”.

Question: And the “Most effective treatment schedule” value [3]?
Answer: Its value is “most effective when given after the radioimmunotherapy”.

Question: And the “Effect of drug combined” value [3, 12]?
Answer: The value was “synergistic effect over the mere additive effect”.
